Experimental data from PubChem BioAssay AID504497 (Sanford-Burnham Center for Chemical Genomics, 2011).

Biological target: Sentrin-specific protease 7 (Homo sapiens) (UniProt Q9BQF6)
Assay: inhibition of human SENP7 cleavage activity – biochemical, luminescence, SAR follow-up (AID 504497)
Settings: recombinant SENP7, Z-RLRGG-aminoluciferin luminescence

Chain of Sentrin-specific protease 7 (Homo sapiens) (Q9BQF6 706-1050 limits assumed): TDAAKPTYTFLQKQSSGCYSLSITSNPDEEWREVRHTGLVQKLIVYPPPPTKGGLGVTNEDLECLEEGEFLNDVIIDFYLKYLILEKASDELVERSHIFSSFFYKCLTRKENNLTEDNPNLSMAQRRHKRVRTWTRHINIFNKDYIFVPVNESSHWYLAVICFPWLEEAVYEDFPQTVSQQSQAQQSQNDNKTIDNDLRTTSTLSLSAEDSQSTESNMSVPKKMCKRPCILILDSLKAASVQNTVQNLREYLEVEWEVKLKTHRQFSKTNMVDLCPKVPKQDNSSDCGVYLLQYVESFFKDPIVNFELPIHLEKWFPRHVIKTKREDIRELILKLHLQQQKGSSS

`N#Cc1c(NC(=O)CSc2ncn[nH]2)sc2c1CCCCC2` gave an IC50 of 5.66 µM.
